Assay results from EP0212310A2, “Use of probucol in the preparation of a medicament for the treatment of heart arrhythmia” (priority 1985, dated 1987).
Where “and” joins values, the source holds several entries; their conditions need not be identical. Identical values can stand only once.

How the values were obtained:
[1] = system: Patienten mit Hyperlipoproteinämie; assay: 12-lead standard ECG: QT time and heart rate in verum and placebo phases of a controlled study; type: in vivo
Excerpt: Je ein 12-Ableitungs-Standard-EKG wurde registriert. • 1. In der Placebophase • 2. In der Verumphase nach 12 Wochen • 3. In der Verumphase nach 24 Wochen • 4. In der Placebophase 42 Tage nach Absetzen von Probucol
Für jede der Aufzeichnungen wurde jeweils die frequenzkorrigierte QT-Zeit ermittelt (Bazett-Formula).
Unter Verwendung des Wilcoxon-Tests für verbundene Stichproben wurde geprüft, ob ein signifikanter Unterschied der QT-Dauer zwischen den Placebophasen und den Verumphasen besteht.

[2] = system: Patienten mit Hyperlipoproteinämie; details: in vivo
Excerpt: Bei 42 Patienten mit Hyperlipoproteinämie wurde im Rahmen einer kontrollierten Studie die Wirkung von Probucol gegen Placebo geprüft.

[3] = system: Patienten mit Hyperlipoproteinämie; assay: 24-hour long-term ECG: arrhythmia frequency under placebo (control) and under verum; type: in vivo
Excerpt: Von allen 42 Patienten wurde mittels Oxfolg-Medilog II Registriergeräten ein 24-Stunden-Langzeit-EKG sowohl in der Verum- als auch in der Placebophase registriert.
Die Bänder wurden ohne Kenntnis der Therapie unter Verwendung eines Reynolds Pathfinder-Analysesytems ausgewertet, dessen Sensitivität zur Identifikation von QRS-Komplexion bei 99 %, zur Erkennung ventrikulärer Extrasystolen bei 96 % lag. Neben den normalen und extrasystolischen QRS-Komplexen wurden auch die folgenden Arrhythmieformen quantitativ erfaßt: supraventrikuläre Extrasystolen, supraventrikuläre Tachykardien, ventrikuläre Extrasystolen, R/T-Phänomene,gepaarte ventrikuläre Extrasystolen, mehrere hintereinander auftretende ventrikuläre Extrasystolen, Kammertachykardien, ventrikuläre Bigemini und Asystolien. Darüber hinaus wurden erfaßt Phasen intermittierenden Vorhofflimmerns, intermittierende Schenkelblockbilder und das Herzfrequenzverhalten.
Die stündliche Häufigkeit der verschiedenen Rhythmusstö-rungen wurden erfaßt und auf einem Computerausdruck dokumentiert. Die Analyse wurde korrigiert, indem der Vorgang jedes Mal unterbrochen wurde, wenn eine ventrikuläre Extrasystole erkannt wurde. Diese wurde dann jeweils 1 : 1 auf EKG-Papier ausgeschrieben und durch den Untersucher verifiziert. Im Falle der falsch positiven Erkennung eines Ereignisses wurde der Computerausdruck entsprechend korrigiert. Dadurch wurde die positive Korrektheit der Analyse auf 100 % gesteigert. In Tabelle 3 sind die korri gierten Ergebnisse wiedergegeben.
Bei der relativen Seltenheit komplexer tachykarder ventrikulärer Rhythmusstörungen im untersuchten Kollektiv wurde eine Bewertung des Therapieeffektes lediglich für die ventrikulären Extrasystolen vorgenommen. Hierbei ließ sich die Frage nach einem möglichen paradoxen arrhythmogenen Effekt naturgemäß für alle Patienten beantworten, die Frage nach einem antiarrhythmischen Effekt dagegen nur bei den Patienten, deren spontane Arrhythmiehäufigkeit in der Placebophase eine gewisse Häufigkeit überschritt. Hierfür wurde willkürlich eine Grenze von wenigstens einer Extrasystole/Stunde, entsprechend 24 in 24 Stunden, gefordert.
Als Hinweis auf einen möglichen paradoxen arrhythmogenen Effekt des Medikaments werteten wir eine Zunahme der Extrasystoliehäufigkeit gegenüber Placebo um wenigstens 150 %. Als Hinweis auf einen möglichen antiarrhythmischen Effekt werteten wir eine Abnahme der spontanen Extrasystoliehäufigkeit um wenigstens 60 %, als Hinweise auf einen wahrscheinlichen antiarrhythmischen Effekt eine Abnahme der Extrasystoliehäufigkeit um wenigstens 75 %.

[4] = number out of 17 patients with more than 1 VES/h under placebo

Question: For `CC(C)(Sc1cc(C(C)(C)C)c(O)c(C(C)(C)C)c1)Sc1cc(C(C)(C)C)c(O)c(C(C)(C)C)c1` [Probucol], which “Verlängerung der frequenzkontrollierten QT-Zeit” value ([1]; 1000 mg daily, versus placebo) is on record?
Answer: Its value is “ca. 5%”.

Question: What about the “Verum-2 F Mittelw.” value ([1]; mean, N 41, phase Verum-2) of the same compound?
Answer: Its value is 64,32.

Question: And the “Verum-2 QT Mittelw.” value ([1]; mean, N 41, phase Verum-2)?
Answer: Its value is 0,40.

Question: What about the “Verum-4 F Mittelw.” value ([1]; mean, N 41, phase Verum-4) of the same compound?
Answer: The value was 66,49.

Question: What about the “Verum-4 QT Mittelw.” value ([1]; mean, N 41, phase Verum-4) of the same compound?
Answer: The value was 0,38.

Question: What about the “frequenzkorrigierte QT-Zeit unter Probucol im Vergleich zu den Placebophasen” value ([1]; therapy phase 1 or 2 versus placebo phase 1 or 2, p = 0.002, Wilcoxon test) of the same compound?
Answer: The value was “signifikant verlängert”.

Question: And the Nebenwirkungen [2]?
Answer: The Nebenwirkungen was “gelegentlich Durchfall, Bauchschmerzen und Kopfschmerzen”.

Question: What about the “Patienten mit Abnahme der Extrasystolie um wenigstens 60 %” value ([3]; further patients out of the 8 with more than 15 VES/h spontaneous frequency) of the same compound?
Answer: Its value is “Drei”.

Question: What about the “komplexe tachykarde ventrikuläre Rhythmusstörungen unter Therapie” value ([3]; in the 3 patients with paradoxical arrhythmogenic effect) of the same compound?
Answer: The value was “Bei keinem der 3 Patienten”.

Question: What about the “Patienten mit signifikanter Zunahme der spontanen Arrhythmiehäufigkeit unter Probucol (paradoxe arrhythmogene Wirkung)” value ([3]; in vivo) of the same compound?
Answer: Its value is 3.

Question: What about the “ventrikulärer Bigeminus” value ([3]; in vivo) of the same compound?
Answer: The value was “bei einem Patienten unter Verum, jedoch nicht unter Placebo”.

Question: And the “Abnahme der Extrasystoliefrequenz” value ([3]; individual values of the 8 patients with more than 15 VES/h spontaneous frequency)?
Answer: Its value is 60% and 66% and 69% and 89% and 90% and 94% and 95% and 100%.

Question: What about the “Patienten mit statistisch signifikanter Abnahme der Extrasystoliefrequenz um mehr als 75 %” value ([3]; number out of 8 patients with more than 15 VES/h spontaneous frequency) of the same compound?
Answer: The value was 5.

Question: What about the “Patienten mit Reduktion der Extrasystolen unter Therapie über 75 %” value [3, 4] of the same compound?
Answer: The value was 7.

Question: What about the “Patienten mit Reduktion der Extrasystolen zwischen 60 und 75 %” value [3, 4] of the same compound?
Answer: Its value is 3.

Question: And the “Patienten mit Reduktion der spontanen Extrasystoliefrequenz, die auf eine antiarrhythmische Wirkung hinweist” value ([3]; share of the 17 patients with more than 1 VES/h under placebo, reduction of at least 60 %)?
Answer: Its value is 59%.
